The record followed here is patent publication US11447466B2, “Substituted indole compounds useful as inhibitors of TLR7/8/9” (BRISTOL-MYERS SQUIBB COMPANY, priority 2017, dated 2022).

Common to all, as to assay type: cell-based
For one test, the target named is T1, human TLR7 (Homo sapiens, UniProt Q9NYK1).
T1 construct: host or cells: HEK-Blue cells
T1 sequence (Q9NYK1 27-1049): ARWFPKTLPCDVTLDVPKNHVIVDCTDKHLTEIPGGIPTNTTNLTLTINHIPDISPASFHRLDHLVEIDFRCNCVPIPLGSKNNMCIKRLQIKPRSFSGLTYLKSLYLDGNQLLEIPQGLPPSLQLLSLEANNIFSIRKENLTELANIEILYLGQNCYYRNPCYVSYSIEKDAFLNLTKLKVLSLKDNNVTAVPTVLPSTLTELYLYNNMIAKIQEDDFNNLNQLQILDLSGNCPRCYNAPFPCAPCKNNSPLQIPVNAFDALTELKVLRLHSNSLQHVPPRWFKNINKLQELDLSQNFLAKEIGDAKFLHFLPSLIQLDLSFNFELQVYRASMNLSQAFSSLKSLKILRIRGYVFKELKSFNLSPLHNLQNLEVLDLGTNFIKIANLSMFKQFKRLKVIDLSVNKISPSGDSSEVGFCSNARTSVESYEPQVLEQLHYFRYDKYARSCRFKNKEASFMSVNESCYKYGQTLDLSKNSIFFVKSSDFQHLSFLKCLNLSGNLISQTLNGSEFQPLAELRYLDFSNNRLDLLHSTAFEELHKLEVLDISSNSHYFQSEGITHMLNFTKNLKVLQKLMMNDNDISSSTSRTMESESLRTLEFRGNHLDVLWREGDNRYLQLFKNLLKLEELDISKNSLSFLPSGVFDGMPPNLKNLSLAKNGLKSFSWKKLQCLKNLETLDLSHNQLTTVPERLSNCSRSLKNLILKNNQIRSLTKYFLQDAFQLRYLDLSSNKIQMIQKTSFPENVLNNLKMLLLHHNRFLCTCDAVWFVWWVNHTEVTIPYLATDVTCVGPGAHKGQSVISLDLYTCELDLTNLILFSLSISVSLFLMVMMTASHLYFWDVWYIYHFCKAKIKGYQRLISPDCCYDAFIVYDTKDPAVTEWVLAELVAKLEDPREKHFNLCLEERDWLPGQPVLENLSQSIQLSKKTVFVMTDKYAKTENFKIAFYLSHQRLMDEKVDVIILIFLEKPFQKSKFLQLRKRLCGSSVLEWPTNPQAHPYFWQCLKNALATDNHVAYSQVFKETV
The test can be described thus: TLR7 inhibition reporter assay (HEK-Blue SEAP reporter, gardiquimod stimulation). The following applies: HEK-Blue cells overexpressing human TLR7, SEAP reporter, gardiquimod 7.5 μM, 22 hour incubation. The procedure, abridged: (§1)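 Agonists used: gardiquimod 7.5 μM (TLR7), R848 15.9 μM (TLR8), ODN2006 5 nM (TLR9), added after 30 min room-temperature compound pre-treatment (0.05 nM–50 μM) of receptor-overexpressing HEK-Blue cells. SEAP reporter (NF-κB/AP-1 driven) read after 22 h at 37 °C; inhibition scaled between agonist+DMSO and reference-inhibitor wells.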

For a further test, the target named is T2, human TLR8 (Homo sapiens, UniProt Q9NR97).
T2 construct: host or cells: HEK-Blue cells
T2 sequence (Q9NR97 27-1041): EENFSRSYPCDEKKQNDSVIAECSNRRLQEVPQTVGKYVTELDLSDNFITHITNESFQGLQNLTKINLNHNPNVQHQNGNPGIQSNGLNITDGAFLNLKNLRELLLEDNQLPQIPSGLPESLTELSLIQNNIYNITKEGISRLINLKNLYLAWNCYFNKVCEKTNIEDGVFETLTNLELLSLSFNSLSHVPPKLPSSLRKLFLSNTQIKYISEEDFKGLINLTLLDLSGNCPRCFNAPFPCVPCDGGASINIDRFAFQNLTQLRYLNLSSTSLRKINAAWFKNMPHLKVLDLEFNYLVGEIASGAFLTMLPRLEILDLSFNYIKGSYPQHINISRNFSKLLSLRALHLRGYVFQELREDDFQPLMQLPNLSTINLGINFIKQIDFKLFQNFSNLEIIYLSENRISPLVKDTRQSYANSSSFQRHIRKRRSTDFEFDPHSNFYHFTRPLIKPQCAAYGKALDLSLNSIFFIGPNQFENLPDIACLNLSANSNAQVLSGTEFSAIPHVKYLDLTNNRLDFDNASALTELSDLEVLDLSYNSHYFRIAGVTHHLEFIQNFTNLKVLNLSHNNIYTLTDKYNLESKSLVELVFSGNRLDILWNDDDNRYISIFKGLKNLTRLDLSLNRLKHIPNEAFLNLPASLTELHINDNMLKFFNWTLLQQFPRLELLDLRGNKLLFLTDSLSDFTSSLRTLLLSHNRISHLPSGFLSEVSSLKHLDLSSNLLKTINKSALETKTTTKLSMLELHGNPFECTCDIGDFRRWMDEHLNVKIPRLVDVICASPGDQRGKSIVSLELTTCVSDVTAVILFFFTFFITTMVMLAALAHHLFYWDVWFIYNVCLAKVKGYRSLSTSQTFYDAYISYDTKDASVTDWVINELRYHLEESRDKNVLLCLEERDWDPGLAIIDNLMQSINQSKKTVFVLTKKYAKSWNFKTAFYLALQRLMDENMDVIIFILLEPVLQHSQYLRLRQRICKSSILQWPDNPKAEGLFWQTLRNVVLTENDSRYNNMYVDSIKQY
Put plainly: TLR8 inhibition reporter assay (HEK-Blue SEAP reporter, R848 stimulation). The following applies: HEK-Blue cells overexpressing human TLR8, SEAP reporter, R848 15.9 μM, 22 hour incubation. The procedure, abridged:
as §1
Background: In a reporter assay the amount or activity of a reporter protein is the signal.

In the next test the target is T3, human TLR9 (Homo sapiens, UniProt Q9NR96).
T3 construct: host or cells: HEK-Blue cells
T3 sequence (Q9NR96 26-1032): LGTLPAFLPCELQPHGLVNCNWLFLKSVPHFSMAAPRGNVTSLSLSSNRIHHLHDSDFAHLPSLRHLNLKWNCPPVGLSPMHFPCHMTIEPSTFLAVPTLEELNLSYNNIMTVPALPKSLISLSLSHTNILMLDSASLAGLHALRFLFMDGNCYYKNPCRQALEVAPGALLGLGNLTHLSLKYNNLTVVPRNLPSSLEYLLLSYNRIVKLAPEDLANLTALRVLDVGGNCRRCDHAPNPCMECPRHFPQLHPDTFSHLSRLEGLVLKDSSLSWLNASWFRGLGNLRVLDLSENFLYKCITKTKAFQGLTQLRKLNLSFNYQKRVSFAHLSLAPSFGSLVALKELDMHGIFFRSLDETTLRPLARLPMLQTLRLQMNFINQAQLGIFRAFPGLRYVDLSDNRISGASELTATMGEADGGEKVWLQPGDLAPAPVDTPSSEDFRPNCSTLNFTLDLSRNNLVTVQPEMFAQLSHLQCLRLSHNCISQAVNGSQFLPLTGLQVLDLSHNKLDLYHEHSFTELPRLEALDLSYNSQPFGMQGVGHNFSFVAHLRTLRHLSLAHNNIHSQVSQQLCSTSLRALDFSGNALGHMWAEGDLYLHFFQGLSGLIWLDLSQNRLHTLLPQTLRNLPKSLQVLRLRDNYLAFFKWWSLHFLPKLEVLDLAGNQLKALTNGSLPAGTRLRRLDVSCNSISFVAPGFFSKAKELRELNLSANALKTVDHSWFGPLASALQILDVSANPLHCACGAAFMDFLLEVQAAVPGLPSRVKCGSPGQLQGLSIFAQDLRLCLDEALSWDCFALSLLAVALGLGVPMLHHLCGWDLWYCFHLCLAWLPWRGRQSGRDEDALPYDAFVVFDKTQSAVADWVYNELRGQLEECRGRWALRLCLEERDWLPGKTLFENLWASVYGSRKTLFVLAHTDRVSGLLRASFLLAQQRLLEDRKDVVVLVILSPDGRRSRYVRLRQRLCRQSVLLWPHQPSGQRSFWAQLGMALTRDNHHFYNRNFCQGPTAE
Put plainly: TLR9 inhibition reporter assay (HEK-Blue SEAP reporter, ODN2006 stimulation). The following applies: HEK-Blue cells overexpressing human TLR9, SEAP reporter, ODN2006 5 nM, 22 hour incubation. The procedure, abridged: as §1

The structures appear in SMILES notation.

One may read the IC50 as the concentration that inhibits the measured activity by half. High values mean weaker potency in that assay, low ones greater potency in that assay. On to `CC(C)c1c(-c2cc(-c3cncnc3)c(=O)n(C)c2)[nH]c2ccc(C3CCNCC3)cc12` [Example 54, 5-(3-isopropyl-5-(piperidin-4-yl)-1H-indol-2-yl)-1-methyl-3-(pyrimidin-5-yl)pyridin-2(1H)-one], for which the values for the IC50 against human TLR7, on human TLR8 and against human TLR9 were 23.4 nM, 5.9 nM and 0.753 µM, respectively.
The corresponding values for `CC(C)c1c(-c2cc(C(F)(F)F)c(=O)n(C)c2)[nH]c2ccc(C3CCNCC3)cc12` [Example 41, 5-(3-isopropyl-5-(piperidin-4-yl)-1H-indol-2-yl)-1-methyl-3-(trifluoromethyl)pyridin-2(1H)-one] are 18 nM, 158 nM and 1.12 µM.
On to `CCn1cc(-c2[nH]c3ccc(C4CCN(C5COC5)CC4)cc3c2C(C)C)cc(C)c1=O` [Example 204, 1-ethyl-5-(3-isopropyl-5-(1-(oxetan-3-yl)piperidin-4-yl)-1H-indol-2-yl)-3-methylpyridin-2(1H)-one], for which the IC50 on human TLR7 was 14.6 nM; against human TLR8, 18 nM; against human TLR9, at least 50 µM.
As for `Cc1cc(-c2[nH]c3ccc(C4CCN(CCCC(F)(F)F)CC4)cc3c2C(C)C)cn(Cc2ccccc2)c1=O` [Example 111, 1-benzyl-5-(3-isopropyl-5-(1-(4,4,4-trifluorobutyl)piperidin-4-yl)-1H-indol-2-yl)-3-methylpyridin-2(1H)-one], the IC50 against human TLR7 amounted to 48 nM; on human TLR8, 157 nM; against human TLR9 it was 3.06 µM.
For the molecule `CCn1cc(-c2[nH]c3ccc(C4CCN(C5COC5)CC4)cc3c2C(C)C)c(C)c(C)c1=O` [Example 209, 1-ethyl-5-(3-isopropyl-5-(1-(oxetan-3-yl)piperidin-4-yl)-1H-indol-2-yl)-3,4-dimethylpyridin-2(1H)-one], the results for the half-inhibitory concentration (IC50) at human TLR7, against human TLR8 and at human TLR9 were 34.3 nM, 18 nM and 17.5 µM, respectively.
The corresponding values for `Cc1cc(-c2[nH]c3ccc(C4CCNCC4)cc3c2C(C)C)nn(C)c1=O` [Example 11, 6-(3-isopropyl-5-(piperidin-4-yl)-1H-indol-2-yl)-2,4-dimethylpyridazin-3(2H)-one] are 5.3 nM, 3.3 nM and 4.85 µM.
As to `CNC(=O)CN1CCC(c2ccc3[nH]c(-c4cn(C)c(=O)c(OC)c4C)c(C(C)C)c3c2)CC1` [Example 140, 2-(4-(3-isopropyl-2-(5-methoxy-1,4-dimethyl-6-oxo-1,6-dihydropyridin-3-yl)-1H-indol-5-yl)piperidin-1-yl)-N-methylacetamide], the results for the IC50 against human TLR7, against human TLR8 and at human TLR9 were 47.8 nM, 39.7 nM and 21.9 µM, respectively.
Taken in the same sequence, the figures for `CCn1cc(-c2[nH]c3ccc(C4CCN(CC(=O)NC)CC4)cc3c2C(C)C)cc(C)c1=O` [Example 132, 2-(4-(2-(1-ethyl-5-methyl-6-oxo-1,6-dihydropyridin-3-yl)-3-isopropyl-1H-indol-5-yl)piperidin-1-yl)-N-methylacetamide] were 9 nM, 15.1 nM and 25.5 µM.
The corresponding values for `Cc1cc(-c2[nH]c3ccc(C4CCN(C(=O)CN5CCCC5=O)CC4)cc3c2C(C)C)cn(C)c1=O` [Example 300, 5-(3-isopropyl-5-(1-(2-(2-oxopyrrolidin-1-yl)acetyl)piperidin-4-yl)-1H-indol-2-yl)-1,3-dimethylpyridin-2(1H)-one] are 42.6 nM, 42.5 nM and at least 50 µM.
The corresponding values for `CCCN1CCC(c2ccc3[nH]c(-c4cc(-c5cnc(C6CC6)nc5)c(=O)n(C)c4)c(C(C)C)c3c2)CC1` [Example 338, 3-(2-cyclopropylpyrimidin-5-yl)-5-(3-isopropyl-5-(1-propylpiperidin-4-yl)-1H-indol-2-yl)-1-methylpyridin-2(1H)-one] are 1.1 nM, 13.5 nM and 0.772 µM.
With `Cc1cc(-c2[nH]c3ccc(C4CCN(CCCC(F)(F)F)CC4)cc3c2C(C)C)cn(C)c1=O` [Example 79, 5-(3-isopropyl-5-(1-(4,4,4-trifluorobutyl)piperidin-4-yl)-1H-indol-2-yl)-1,3-dimethylpyridin-2(1H)-one], the IC50 against human TLR7 came to 11.1 nM; on human TLR8, 10.8 nM; against human TLR9 it was 3.79 µM.
Taken in the same sequence, the figures for `Cc1cc(-c2[nH]c3ccc(C4CCN(CC(C)C)CC4)cc3c2C(C)C)cn(CC(C)C)c1=O` [Example 112, 1-isobutyl-5-(5-(1-isobutylpiperidin-4-yl)-3-isopropyl-1H-indol-2-yl)-3-methylpyridin-2(1H)-one] were 38.9 nM, 70.5 nM and 2.36 µM.
The corresponding values for `Cc1cc(-c2[nH]c3ccc(C4CCN(CCC(C)C)CC4)cc3c2C(C)C)cn(C)c1=O` [Example 86, 5-(5-(1-isopentylpiperidin-4-yl)-3-isopropyl-1H-indol-2-yl)-1,3-dimethylpyridin-2(1H)-one] are 2.1 nM, 4.6 nM and 2.54 µM.
